From article PMC7176092, “Development of the first in vivo GPR17 ligand through an iterative drug discovery pipeline: A novel disease-modifying strategy for multiple sclerosis” (PLoS ONE, 2020)
Several values for one entry are separate records, joined by “and”; a condition that tells them apart may be missing. Equal values may be shown once. Read-outs that look alike come from different tables or passages of the source.

Columns and labels:
CCR8 = CCR8 (Homo sapiens, UniProt P51685); experiment: Cellular functional assay CCR8
Sequence of CCR8 (P51685 whole entry): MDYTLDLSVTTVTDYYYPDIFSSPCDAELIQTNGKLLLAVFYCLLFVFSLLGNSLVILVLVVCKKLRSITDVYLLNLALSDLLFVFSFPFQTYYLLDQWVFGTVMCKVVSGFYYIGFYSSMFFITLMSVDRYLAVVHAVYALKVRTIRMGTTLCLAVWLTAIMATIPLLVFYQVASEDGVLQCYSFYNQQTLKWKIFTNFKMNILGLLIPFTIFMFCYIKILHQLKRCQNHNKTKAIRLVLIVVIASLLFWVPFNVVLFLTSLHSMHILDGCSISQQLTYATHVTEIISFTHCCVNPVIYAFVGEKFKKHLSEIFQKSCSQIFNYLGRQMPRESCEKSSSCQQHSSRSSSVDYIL

CXCR1 = target: T1, CXCR1 (Homo sapiens, UniProt P25024); experiment: Cellular functional assay CXCR1
T1 sequence (P25024 1-350): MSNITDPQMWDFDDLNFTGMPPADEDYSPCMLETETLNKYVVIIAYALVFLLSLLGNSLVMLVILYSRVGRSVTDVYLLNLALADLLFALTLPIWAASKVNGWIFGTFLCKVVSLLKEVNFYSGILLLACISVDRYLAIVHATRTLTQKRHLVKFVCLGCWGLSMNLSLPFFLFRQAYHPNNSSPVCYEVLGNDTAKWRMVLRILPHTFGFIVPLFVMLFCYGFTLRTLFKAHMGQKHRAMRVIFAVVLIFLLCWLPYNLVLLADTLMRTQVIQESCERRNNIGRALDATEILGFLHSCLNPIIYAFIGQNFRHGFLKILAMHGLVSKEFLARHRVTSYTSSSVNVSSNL

CCR10 = target: T2, CCR10 (Homo sapiens, UniProt P46092); experiment: Cellular functional assay CCR10
T2 sequence (P46092 1-362): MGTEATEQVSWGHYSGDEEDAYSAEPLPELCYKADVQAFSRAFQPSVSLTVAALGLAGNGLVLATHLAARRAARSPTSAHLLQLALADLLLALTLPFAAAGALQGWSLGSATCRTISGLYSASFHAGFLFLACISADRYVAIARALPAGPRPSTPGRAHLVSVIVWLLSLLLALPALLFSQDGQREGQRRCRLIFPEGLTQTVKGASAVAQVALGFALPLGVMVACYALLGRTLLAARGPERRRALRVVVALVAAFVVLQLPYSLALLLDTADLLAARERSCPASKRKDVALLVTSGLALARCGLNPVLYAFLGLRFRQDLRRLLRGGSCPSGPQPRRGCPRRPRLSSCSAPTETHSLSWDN

CCR7 = target: T3, CCR7 (Homo sapiens, UniProt P32248); experiment: Cellular functional assay CCR7
T3 sequence (P32248 25-378): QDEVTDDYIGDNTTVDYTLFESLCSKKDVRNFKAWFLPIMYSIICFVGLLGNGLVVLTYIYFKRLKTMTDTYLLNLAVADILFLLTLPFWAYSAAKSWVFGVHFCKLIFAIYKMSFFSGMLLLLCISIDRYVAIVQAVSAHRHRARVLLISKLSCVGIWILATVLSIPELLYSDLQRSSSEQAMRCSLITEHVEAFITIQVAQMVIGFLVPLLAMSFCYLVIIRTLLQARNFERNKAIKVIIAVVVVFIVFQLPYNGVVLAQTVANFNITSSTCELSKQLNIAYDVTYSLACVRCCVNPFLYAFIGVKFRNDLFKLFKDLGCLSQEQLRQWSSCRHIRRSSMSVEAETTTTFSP

P2Y = experiment: Binding assay P2Y; parameters: species or system human; conditions: 100 nM
ADR1B = target: T4, ADR1B (Homo sapiens, UniProt P35368); experiment: Binding assay ADR1B; conditions: 100 nM
T4 construct: Eurofins Cerep (external service)
T4 sequence (P35368 1-520): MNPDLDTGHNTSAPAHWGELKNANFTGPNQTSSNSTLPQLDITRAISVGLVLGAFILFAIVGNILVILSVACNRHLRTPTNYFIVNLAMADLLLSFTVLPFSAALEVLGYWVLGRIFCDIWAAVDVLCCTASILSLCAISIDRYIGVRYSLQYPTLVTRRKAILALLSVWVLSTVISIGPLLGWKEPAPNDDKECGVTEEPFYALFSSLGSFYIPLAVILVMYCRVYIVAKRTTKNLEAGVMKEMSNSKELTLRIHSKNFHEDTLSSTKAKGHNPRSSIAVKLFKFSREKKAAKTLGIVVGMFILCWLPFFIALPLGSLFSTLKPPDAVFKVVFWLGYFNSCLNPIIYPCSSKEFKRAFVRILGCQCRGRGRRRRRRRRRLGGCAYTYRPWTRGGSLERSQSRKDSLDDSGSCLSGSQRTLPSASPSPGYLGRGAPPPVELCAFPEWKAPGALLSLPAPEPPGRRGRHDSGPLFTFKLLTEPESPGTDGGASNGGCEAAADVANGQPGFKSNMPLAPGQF

CXCR2 = target: T5, CXCR2 (Homo sapiens, UniProt P25025); experiment: Binding assay CXCR2; conditions: 100 nM
T5 construct: Eurofins Cerep (external service)
T5 sequence (P25025 1-360): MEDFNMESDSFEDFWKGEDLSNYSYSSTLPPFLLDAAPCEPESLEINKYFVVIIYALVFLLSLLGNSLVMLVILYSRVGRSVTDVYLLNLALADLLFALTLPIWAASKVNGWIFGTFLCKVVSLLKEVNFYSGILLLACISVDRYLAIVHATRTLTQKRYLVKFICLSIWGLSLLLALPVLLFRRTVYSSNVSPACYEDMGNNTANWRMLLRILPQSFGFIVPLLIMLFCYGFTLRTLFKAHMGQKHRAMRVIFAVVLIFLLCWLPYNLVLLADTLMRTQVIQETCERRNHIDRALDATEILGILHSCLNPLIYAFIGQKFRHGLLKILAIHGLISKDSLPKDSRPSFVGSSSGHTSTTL

M3 = target: T6, M3 (Homo sapiens, UniProt P20309); experiment: Binding assay M3; conditions: 100 nM
T6 construct: Eurofins Cerep (external service)
T6 sequence (P20309 whole entry): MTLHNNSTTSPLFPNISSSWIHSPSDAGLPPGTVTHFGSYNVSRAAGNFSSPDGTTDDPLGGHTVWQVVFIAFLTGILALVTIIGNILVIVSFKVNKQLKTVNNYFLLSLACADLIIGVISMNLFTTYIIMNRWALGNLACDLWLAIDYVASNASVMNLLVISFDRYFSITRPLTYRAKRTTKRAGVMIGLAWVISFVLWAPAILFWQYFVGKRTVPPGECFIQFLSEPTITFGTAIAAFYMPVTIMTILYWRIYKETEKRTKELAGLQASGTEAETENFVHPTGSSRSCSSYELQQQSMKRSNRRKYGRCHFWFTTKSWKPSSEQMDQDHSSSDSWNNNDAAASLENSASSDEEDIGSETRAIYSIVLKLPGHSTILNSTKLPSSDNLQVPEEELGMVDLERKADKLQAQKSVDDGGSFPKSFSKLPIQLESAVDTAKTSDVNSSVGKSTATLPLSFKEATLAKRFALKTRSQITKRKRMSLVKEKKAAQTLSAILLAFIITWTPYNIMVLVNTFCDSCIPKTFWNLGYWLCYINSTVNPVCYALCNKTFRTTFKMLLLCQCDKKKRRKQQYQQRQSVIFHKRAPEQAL

[1] = antagonist effect, 100 nM, single replicates 1st and 2nd, 0.1 µM
[2] = read-out: % Inhibition of control agonist response
[3] = read-out: Agonist Response (% of Control), Mean, antagonist effect, 100 nM, mean of 2
[4] = read-out: Agonist Response (% of Control), antagonist effect, 100 nM, single replicates 1st and 2nd
[5] = single replicates 1 and 2, 0.1 µM
[6] = mean of 2, read-out: % Of control specific binding, Mean
[7] = read-out: % Inhibition of control specific binding
[8] = single replicates 1 and 2, read-out: % Of control specific binding

Agonist Response (% of Control) (CCR8; [1]): 116.9% and 80.2% | inhibition at 0.1 µM (CCR8; [2]): 2% | activity at 0.1 µM (CCR8; [3]): 98.5% | Agonist Response (% of Control) (CXCR1; [1]): 105.5% | inhibition at 0.1 µM (CXCR1; [2]): -0.8% | activity at 0.1 µM (CXCR1; [3]): 96.3% | activity at 0.1 µM (CXCR1; [4]): 87.1% | Agonist Response (% of Control) (CCR10; [1]): 90.0% | inhibition at 0.1 µM (CCR10; [2]): -0.9% | activity at 0.1 µM (CCR10; [3]): 87.7% | activity at 0.1 µM (CCR10; [4]): 85.4% | Agonist Response (% of Control) (CCR7; [1]): 122.8% | inhibition at 0.1 µM (CCR7; [2]): -1.8% | activity at 0.1 µM (CCR7; [3]): 127% | activity at 0.1 µM (CCR7; [4]): 131% | % Inhibition of control specific binding (P2Y): -28% | % Of control specific binding, Mean (P2Y; mean of 2): 128.2% | % Of control specific binding (P2Y; [5]): 120.7% and 135.7% | remaining activity at 0.1 µM (ADR1B; [6]): 89.8% | inhibition at 0.1 µM (ADR1B; [7]): 10% | % Of control specific binding (ADR1B; [5]): 100.1% and 79.4% | remaining activity at 0.1 µM (CXCR2; [6]): 97.3% | inhibition at 0.1 µM (CXCR2; [7]): 3% | % Of control specific binding (CXCR2; [5]): 98.7% | remaining activity at 0.1 µM (CXCR2; [8]): 96% | remaining activity at 0.1 µM (M3; [6]): 106% | inhibition at 0.1 µM (M3; [7]): -6% | % Of control specific binding (M3; [5]): 110.4% | remaining activity at 0.1 µM (M3; [8]): 101%
SMILES: Cc1ccc(-c2nnc(SCC(=O)Nc3nccs3)[nH]2)cc1 [Compound 9]
